Experimental data taken from patent US20220204654A1, “CYCLODEXTRIN SUPRAMOLECULAR SCAFFOLDS AND USES THEREOF” (Massachusetts Institute of Technology, priority 2019, published 2022).

Experiments:
[1] = unmodified cyclodextrin with adamantine (AD), comparison statement; cited from earlier work
[2] = Isothermal titration calorimetry (ITC) glucose binding assay; conditions: ITC binding isotherm, read-out: binding affinity (Kd)
Protocol: Binding studies were then carried out using isothermal titration calorimetry (ITC) to measure thermodynamic properties during binding. ITC was chosen as the preferred method to confirm binding of glucose as this assay excludes the possibilities of any false positive data. The ITC based binding assay needed significant optimization with respect to macromolecule concentration, choice of buffer, ways of desalting, concentration of the glucose solution, etc.

Question: For cyclodextrin, which dissociation constant [1] is on record?
Answer: micromolar range

Question: Which Kd [2] does the source give for OCC1O[C@@H]2O[C@@H]3C(CO)O[C@H](O[C@@H]4C5CSCc6ccc(cc6)-c6ccc(cc6)CSCC6O[C@H](O[C@@H]7C(CO)O[C@H](O[C@H]1C(O)C2O)C(O)C7O)C(O)C(O)[C@@H]6O[C@H]1OC(CO)[C@@H](O[C@H]2OC(CO)[C@@H](O[C@@H](O5)C(O)C4O)C(O)C2O)C(O)C1O)C(O)C3O (some centres unmarked) [CDC1] here?
Answer: ~5 mM
